Assay results published in patent US20170088623A1, “Prophylaxis Against Cancer Metastasis” (Ingeneron, Inc., priority 2015, published 2017).

Columns and labels:
[1] = tested on: LCN2 expression in SKBr3 cells; test: LCN2 levels in HER2+ SKBr3 cells by Western blotting; assay type: cell-based, human; details: SKBr3 cells incubated with inhibitor
Text: FIGS. 3A-D depict experiments showing that LCN2 (NGAL) is a down-stream target of the HER2/PI-3K/AKT/NF-κB pathway.
In addition, overexpression of dominant negative AKT led to reduced expression of LCN2, while overexpression of dominant active AKT increased LCN2 levels ([…]). […] Iannetti A, et al. “The neutrophil gelatinase-associated lipocalin (NGAL), a NF-kappaB-regulated gene, is a survival factor for thyroid neoplastic cells” Proc Natl Acad Sci USA 105(37) (2008) 14058.

[2] = tested on: CXCR4 receptor; details: animal and human studies; cited from earlier work

| Structure (SMILES) | LCN2 expression [1] | hematopoietic stem cell mobilization [2] |
| --- | --- | --- |
| Cc1ccc(S(=O)(=O)/C=C/C#N)cc1 [Bay11-7082] | reduced in a dose-dependent manner |  |
| c1cc(CN2CCCNCCNCCCNCC2)ccc1CN1CCCNCCNCCCNCC1 [AMD3100] |  | able to induce hematopoietic stem cell mobilization |
